# From patent publication US5171851A, “Imidazole substituted benzoxazine or benzothiazine derivatives” (Dong-A Pharm. Co., Ltd., priority 1990, dated 1992)
# Read-outs that look alike come from different tables or passages of the source.
# Tests used:
# [1] = tested on: blood perfused papillary muscle preparation; assay: contractile power on blood perfused papillary muscle preparation; set-up: species or system dog; details: for activation at 0.001 mg / activation at 0.003 mg / activation at 0.01 mg / activation at 0.03 mg: Canis lupus familiaris, read-out: change of contractivity (%); for activation at 0.001 mg: dose 1.0 ug; for activation at 0.003 mg: dose 3.0 ug; for activation at 0.01 mg: dose 10.0 ug; for activation at 0.03 mg: dose 30.0 ug; for ED 30 (developed tension of papillary muscle): least-square method
# Description: Determination of contractile power on blood perfused papillary muscle preparation:
# Dogs of either sex weighing 7-12 kg were anesthetized with sodium pentobarbital (30 mg/kg, i.v.). Heparin of 1000 unit/kg was administered to each animal intravenously. The animals were exsanguinated and heart was removed. The preparation was perfused through the cannulated anterior septal artery (ASA) with arterial blood from a donor dog at constant pressure of about […]. Donor dogs were anesthetized with sodium pentobarbital (30 mg/kg, i.v.). Heparin of 1000 units/kg was administered intravenously. The papillary muscle was stimulated with rectangular pulses of 5- ms duration and about 1.5 times the threshold voltage at a rate of 120 stimuli/min through bipolar electrodes. Resting tension was made to 2 g. The developed tension of papillary muscle was determined by Isometric tresducer. Detailed method was reporated by Matsumoto in Am J. Physiol. 218, 1459-1463 (1970). Test compound at the doses of 10-30 ul was injected in flowing blood in the gum tube connected to catheter. The inotropic effect of the test compounds was shown by change percent of developed tension compared with that prior to the administration of the test compounds.
# [2] = tested on: blood-perfused sino-atrial preparation; assay: sinus rate on blood-perfused sino-atrial preparation; set-up: species or system dog; details: for activation at 0.001 mg / activation at 0.003 mg / activation at 0.01 mg / activation at 0.03 mg: Canis lupus familiaris, read-out: change of sinus rate (%); for activation at 0.003 mg: dose 3.0 ug; for activation at 0.01 mg: dose 10.0 ug; for activation at 0.03 mg: dose 30.0 ug
# Description: Determination of sinus rate on blood-perfused sino-atrial preparation: Mongrel gods of either sex weighing 7-12 kg were anesthetized with sodium pentoba rbital (30 mg/kg i.v.). Heparin ob 1000 unit/kg was administered to each animal intravenously and the animals were exsanguinated. Heart was removed and put in Krebs-Henseleit solution. Catheter was inserted into blood vessel between right coronary artery and SA nodes. Right atrium and catheter were together removed. Blood supplied from carotid artery of donor dog of either sex weighing 15-25 kg, was supplied to blood vessel cather from right coronary artery and SA node under constant blood pressure of 100 mmHG by use of Peristaltic pump. The resting tension of right atrial muscle was made to 2g. The sinus rate triggered by spontaneous contraction of atrial muscle was determined on Narco physiograph Narcotrace 4). Detailed method was reported by S. Chiba, et al. in Japanese Pharmacology 25, 433-439(1975). Doses of test compounds were injected into flowing blood in gum tube connected to the near part of the catheter inserted into right coronary artery. The effects on sinus rate were shown as percent compared with the sinus ratio prior to the injection of the test compounds.
# anesthetized cats = assay: cardiotonic effect on anesthetized cats; format: in vivo, cat; details: Felis catus; for change in vivo at 0.01 mg/kg: 0.01 mg/Kg iv; for change in vivo at 0.03 mg/kg: 0.03 mg/Kg iv; for change in vivo at 0.1 mg/kg: 0.1 mg/Kg iv
# Description: Determination of cardiotonic effect on anesthetized cats: Male cats weighing about 3 kg were anesthetized with sodium pentobarbital (30 mg/kg, i.p.). The same anesthetic was infused intravenously at the does of 4 mg/kg/hr in order to maintain the anesthetic state and mechanically ventilated through a cuffed endotracheal tube, chest was opened by a midline incision and a catheter for measuring left ventricular pressure was inserted through apex into left ventricle and the left ventricular pressure was measured. LVdP/dt was determined by use of diffentiator from the left ventricular pressure. Systemic blood pressure was measured by the left femoral artery by a pressure transducer and heart rate was measured by a cardiotachometer triggered by blood pressure pulses. Test compound was injected into the femoral vein by use of cannule. After completion of the surgical procedures, the cats were allowed to recover about 30 minutes before drug administration. These compounds were dissolved in 0.9% physiological saline and diluted with saline. Solvent such as DMSO or DMF was also used, if necessary. Test compound of 0.1 ml/kg was used. Detailed method was reporated in J. Med. Chem. 30. 1279-87(1987).
SMILES,activation at 0.003 mg [1],activation at 0.01 mg [1],change in vivo at 0.01 mg/kg (anesthetized cats; read-out: HR (%)),change in vivo at 0.01 mg/kg (anesthetized cats; read-out: LV dp/dt (%)),change in vivo at 0.01 mg/kg (anesthetized cats; read-out: LVP (%)),change in vivo at 0.01 mg/kg (anesthetized cats; read-out: SBP (%)),change in vivo at 0.01 mg/kg (anesthetized cats; read-out: dBP),change in vivo at 0.01 mg/kg (anesthetized cats; read-out: mBP (%)),change in vivo at 0.03 mg/kg (anesthetized cats; read-out: HR (%)),change in vivo at 0.03 mg/kg (anesthetized cats; read-out: LV dp/dt (%)),change in vivo at 0.03 mg/kg (anesthetized cats; read-out: LVP (%)),change in vivo at 0.03 mg/kg (anesthetized cats; read-out: SBP (%)),change in vivo at 0.03 mg/kg (anesthetized cats; read-out: dBP),change in vivo at 0.03 mg/kg (anesthetized cats; read-out: mBP (%)),change in vivo at 0.1 mg/kg (anesthetized cats; read-out: HR (%)),change in vivo at 0.1 mg/kg (anesthetized cats; read-out: LV dp/dt (%)),change in vivo at 0.1 mg/kg (anesthetized cats; read-out: LVP (%)),change in vivo at 0.1 mg/kg (anesthetized cats; read-out: SBP (%)),change in vivo at 0.1 mg/kg (anesthetized cats; read-out: dBP),change in vivo at 0.1 mg/kg (anesthetized cats; read-out: mBP (%)),also measured
"Cc1cn(-c2ccc3c(c2)COC(=O)N3)c(C)n1 [6-(2,4-dimethylimidazol-1-yl)-(4H)-3,1-benzoxazin-2-one]",3.7%,10.3%,–,–,–,–,–,–,–,–,–,–,–,–,–,–,–,–,–,–,activation at 0.001 mg [1]: 0%; activation at 0.03 mg [1]: 15.2%; activation at 0.001 mg ([2]; dose 1.0 ug): 0%; activation at 0.003 mg [2]: 0%; activation at 0.01 mg [2]: 0%; activation at 0.03 mg [2]: 1.67%; change of sinus rate (%) ([2]; at the ED 30 dose): +2.56%
"CCc1nc(C)cn1-c1ccc2c(c1)COC(=O)N2 [6-(2-ethyl-4-methylimidazol-1-yl)-(4H)-3,1-benzoxazin-2-one]",3.45%,12.5%,–,–,–,–,–,–,–,–,–,–,–,–,–,–,–,–,–,–,activation at 0.001 mg [1]: 0.68%; activation at 0.03 mg [1]: 14.7%; activation at 0.001 mg ([2]; dose 1.0 ug): 0%; activation at 0.003 mg [2]: 0%; activation at 0.01 mg [2]: 0.83%; activation at 0.03 mg [2]: 1.65%; change of sinus rate (%) ([2]; at the ED 30 dose): +6.82%
"O=C1Nc2ccc(-n3ccnc3)cc2CS1 [6-(imidazol-1-yl)-(4H)-3,1-benzothiazin-2-one]",–,10.7%,1.6%,0%,0%,-2.4%,0%,-1.2%,4.7%,20%,9.9%,-4.8%,-7.8%,-5.8%,7%,39.6%,18.9%,-19.1%,-19.1%,-19.6%,activation at 0.03 mg [1]: 22.7%
"S=C1Nc2ccc(-n3ccnc3)cc2CS1 [6-(imidazol-1-yl)-(4H)-3,1-benzothiazin-2-thione]",–,–,-1.1%,8.3%,2%,2%,-3.2%,-2%,-0.8%,16.6%,4%,3%,-3.3%,0%,0.6%,25%,5.7%,3%,-7.4%,-3.6%,–
"Cc1cn(-c2cc(C)c3c(c2)CSC(=O)N3)cn1 [8-methyl-6-(4-methylimidazol-1-yl)(4H)-3,1-benzothiazin-2-one]",26.5%,–,4.2%,33.3%,3.3%,0%,0%,0%,7.3%,58.4%,5.7%,-3.8%,-4%,-4.5%,12.6%,75%,8.8%,-6.5%,-12%,-16.1%,"ED 30 (developed tension of papillary muscle) [1]: 5.0 µg; ED 30 (developed tension of papillary muscle) ([1]; listed as 8-methyl-6-(4-methylimidazol-1-)-(4H)-3,1-benzothiazin-2-one): 0.6 µg; activation at 0.003 mg [2]: 3.3%; change of sinus rate (%) ([2]; at the ED 30 dose): +3.5%; change of sinus rate (%) ([2]; at the ED 30 dose, listed as 8-methyl-6-(4-methylimidazol-1-)-(4H)-3,1-benzothiazin-2-one): +7.1%; change of sinus rate (%) ([2]; dose 0.1 ug): +2.5%; change of sinus rate (%) ([2]; dose 0.3 ug): +1.6%; change of sinus rate (%) ([2]; dose 1.0 ug): +2.5%"
"Cc1cn(-c2cc(C)c3c(c2)CSC(=S)N3)cn1 [8-methyl-6-(4-methylimidazol-1-yl)-(4H)-3,1-benzothiazin-2-thione]",–,–,0%,6%,1.2%,-2.3%,-5.1%,-3.3%,1.6%,20%,1.8%,-2.3%,-7.7%,-5.3%,10.9%,53.3%,2%,-3.1%,-11.5%,-7.6%,–
